Measured values: patent US10597391B2, “Urea-containing isoxazole derivatives as FXR agonists and methods of use thereof” (Enanta Pharmaceuticals, Inc., priority 2016, dated 2020)
Like-named read-outs stand apart in the source and are kept apart here.

Target: T1, human FXR (NR1H4) (Homo sapiens, UniProt Q96RI1)
T1 sequence (Q96RI1 1-486): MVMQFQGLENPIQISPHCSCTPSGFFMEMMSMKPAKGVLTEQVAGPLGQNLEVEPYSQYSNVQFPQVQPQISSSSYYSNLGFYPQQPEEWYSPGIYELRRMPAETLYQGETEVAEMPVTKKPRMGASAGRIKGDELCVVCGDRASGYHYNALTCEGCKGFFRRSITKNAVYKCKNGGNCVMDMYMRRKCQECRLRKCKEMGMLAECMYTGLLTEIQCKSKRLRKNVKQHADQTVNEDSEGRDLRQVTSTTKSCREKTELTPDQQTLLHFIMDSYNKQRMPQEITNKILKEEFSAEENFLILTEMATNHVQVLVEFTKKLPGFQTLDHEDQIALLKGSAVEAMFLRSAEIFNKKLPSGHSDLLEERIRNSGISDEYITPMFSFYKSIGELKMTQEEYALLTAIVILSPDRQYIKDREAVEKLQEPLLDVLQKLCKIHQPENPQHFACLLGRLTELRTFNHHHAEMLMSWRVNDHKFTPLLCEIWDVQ
Assay: Human FXR (NR1H4) Assay: Gal4 promoter driven luciferase reporter transactivation in CHO cells (Indigo Bioscience kit IB00601)
Format: cell-based
Settings: for Emax: CHO, read-out: Efficacy (%); for EC50: potency range, Human FXR (NR1H4) reporter assay in CHO cells, read-out: EC50
Method in brief: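 CHO reporter cells expressing human NR1H4 with luciferase driven by an FXR-responsive promoter (Gal4 system), run per manufacturer's kit. Compounds applied to plated cells, then incubated a further 22 hours at 37° C. Luciferase luminescence read after detection reagent as a surrogate of FXR activation, giving potency and efficacy.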

[1] = efficacy normalized to CDCA set as 100%

## O=C(NS(=O)(=O)C1CC1)c1ccc(NC(=O)N2C3CCC2CC(OCc2c(-c4ccccc4OC(F)(F)F)noc2C2CC2)C3)cc1 (centres unmarked) [Example 755]
[1]
  Emax: 220%
  EC50: 100 to 1000 nM

## O=C(Nc1ccccc1C(F)(F)F)N1C2CCC1CC(OCc1c(-c3c(Cl)cccc3Cl)noc1C1CC1)C2 (centres unmarked) [Example 6]
  EC50: 100 to 1000 nM

## N#Cc1cncc(NC(=O)N2C3CCC2CC(OCc2c(-c4c(Cl)cccc4Cl)noc2C2CC2)C3)c1 (centres unmarked) [Example 703]
[1]
  Emax: 170%
  EC50: < 10 nM

## COC(=O)c1ccc(NC(=O)N2C3CCC2CC(OCc2c(-c4ccccc4OC(F)(F)F)noc2C2CC2)C3)c(OC)c1 (centres unmarked) [Example 236]
  EC50: 10 to 100 nM

## O=C(O)c1ccnc(NC(=O)N2C3CCC2CC(OCc2c(-c4ccccc4OC(F)(F)F)noc2C2CC2)C3)c1 (centres unmarked) [Example 770]
[1]
  Emax: 93%
  EC50: > 1000 nM

## COC(=O)c1cc(F)c(NC(=O)N2C3CCC2CC(OCc2c(-c4c(Cl)cccc4Cl)noc2C2CC2)C3)cc1-c1ccccc1 (centres unmarked) [Example 794]
[1]
  Emax: 80%
  EC50: < 10 nM

## Cn1nnc(-c2cccc(NC(=O)N3C4CCC3CC(OCc3c(-c5c(Cl)cccc5Cl)noc3C3CC3)C4)c2)n1 (centres unmarked) [Example 187]
  EC50: 10 to 100 nM

## O=C(O)c1ccc(NC(=O)N2C3CCC2CC(OCc2c(-c4ccccc4OC(F)(F)F)noc2C2CC2)C3)cc1-c1ccccc1 (centres unmarked) [Example 247]
  EC50: < 10 nM

## CC(C)(C)c1ccc(S(=O)(=O)NC(=O)c2cccc(NC(=O)N3C4CCC3CC(OCc3c(-c5ccccc5OC(F)(F)F)noc3C3CC3)C4)c2)cc1 (centres unmarked) [Example 263]
  EC50: > 1000 nM

## O=C(Nc1cccnc1)N1C2CCC1CC(OCc1c(-c3c(Cl)cccc3Cl)noc1C1CC1)C2 (centres unmarked) [Example 15]
  EC50: < 10 nM

## CCOc1cc(C(=O)O)ccc1NC(=O)N1C2CCC1CC(NCc1c(-c3ccccc3OC(F)(F)F)noc1C1CC1)C2 (centres unmarked) [Example 832]
[1]
  Emax: 50%
  EC50: 10 to 100 nM

## N#Cc1cccc(NC(=O)N2C3CCC2CC(OCc2c(-c4c(Cl)cccc4Cl)noc2C2CC2)C3)c1 (centres unmarked) [Example 3]
  EC50: < 10 nM

## CCOC(=O)c1ccc(NC(=O)N2C3CCC2CC(OCc2c(-c4c(Cl)cccc4Cl)noc2C2CC2)C3)cc1 (centres unmarked) [Example 182]
  EC50: 10 to 100 nM

## O=C(c1ccc(-c2cccc(NC(=O)N3C4CCC3CC(OCc3c(-c5c(Cl)cccc5Cl)noc3C3CC3)C4)c2)cc1)N1CCOCC1 (centres unmarked) [Example 707]
[1]
  Emax: 220%
  EC50: 10 to 100 nM

## O=C(O)c1ccc2c(c1)N(C(=O)N1C3CCC1CC(OCc1c(-c4ccccc4OC(F)(F)F)noc1C1CC1)C3)CC2 (centres unmarked) [Example 590]
  Emax: 67%
  EC50: > 1000 nM

## O=C(O)c1ccc(NC(=O)N2C3CCC2CC(OCc2c(-c4c(Cl)cccc4Cl)noc2C2CC2)C3)cc1-c1ccc(C(F)(F)F)nc1 (centres unmarked) [Example 799]
[1]
  Emax: 133%
  EC50: < 10 nM

## CCOC(=O)c1ccc2c(c1)N(C(=O)N1C3CCC1CC(OCc1c(-c4ccccc4OC(F)(F)F)noc1C1CC1)C3)CCC2 (centres unmarked) [Example 595]
  Emax: 7%
  EC50: > 1000 nM

## O=C(O)c1cccc(NC(=O)N2C3CCC2CC(OCc2c(-c4ccccc4OC(F)(F)F)noc2C2CC2)C3)c1F (centres unmarked) [Example 746]
[1]
  Emax: 156%
  EC50: > 1000 nM

## CC1(S(=O)(=O)NC(=O)c2cnc3ccc(NC(=O)N4C5CCC4CC(OCc4c(-c6c(Cl)cccc6Cl)noc4C4CC4)C5)cc3c2)CC1 (centres unmarked) [Example 791]
[1]
  Emax: 11%
  EC50: 100 to 1000 nM

## CCOC(=O)c1ccc2c(c1)CCCN2C(=O)N1C2CCC1CC(OCc1c(-c3ccccc3OC(F)(F)F)noc1C1CC1)C2 (centres unmarked) [Example 593]
  Emax: 40%
  EC50: > 1000 nM

## CCOC(=O)c1cccc(NC(=O)N2C3CCC2CC(OCc2c(-c4ccccc4OC(F)(F)F)noc2C2CC2)C3)c1 (centres unmarked) [Example 227]
  EC50: 10 to 100 nM

## COC(=O)c1ccc(NC(=O)N2C3CCC2CC(OCc2c(-c4ccccc4OC(F)(F)F)noc2C2CC2)C3)c(F)c1 (centres unmarked) [Example 237]
  EC50: 100 to 1000 nM

## O=C(Nc1ccc(-c2ccccc2)cc1)N1C2CCC1CC(OCc1c(-c3c(Cl)cccc3Cl)noc1C1CC1)C2 (centres unmarked) [Example 728]
[1]
  Emax: 141%
  EC50: 10 to 100 nM

## CCOC(=O)c1cccc(NC(=O)N2C3CCC2CC(NCc2c(-c4c(Cl)cccc4Cl)noc2C2CC2)C3)c1 (centres unmarked) [Example 827]
[1]
  Emax: 110%
  EC50: < 10 nM

## CCOC(=O)c1ccc(NC(=O)N2C3CCC2CC(NCc2c(-c4c(Cl)cccc4Cl)noc2C2CC2)C3)c(OCC)c1 (centres unmarked) [Example 829]
[1]
  Emax: 57%
  EC50: 10 to 100 nM

## N#Cc1ccc(NC(=O)N2C3CCC2CC(OCc2c(-c4c(Cl)cccc4Cl)noc2C2CC2)C3)cc1 (centres unmarked) [Example 9]
  EC50: 10 to 100 nM

## O=C(O)c1ccc(NC(=O)N2C3CCC2CC(NCc2c(-c4c(Cl)cccc4Cl)noc2C2CC2)C3)cc1 (centres unmarked) [Example 826]
[1]
  Emax: 63%
  EC50: 10 to 100 nM

## O=C(O)c1cc(F)c(NC(=O)N2C3CCC2CC(OCc2c(-c4c(Cl)cccc4Cl)noc2C2CC2)C3)cc1-c1ccccc1 (centres unmarked) [Example 797]
[1]
  Emax: 129%
  EC50: < 10 nM

## CC(C)(C)c1cccc(NC(=O)N2C3CCC2CC(OCc2c(-c4c(Cl)cccc4Cl)noc2C2CC2)C3)c1 (centres unmarked) [Example 4]
  EC50: 10 to 100 nM

## O=C(Nc1ccc(F)cc1)N1C2CCC1CC(OCc1c(-c3c(Cl)cccc3Cl)noc1C1CC1)C2 (centres unmarked) [Example 698]
[1]
  Emax: 182%
  EC50: 10 to 100 nM

## CCOc1cc(C(=O)O)ccc1NC(=O)N1C2CCC1CC(OCc1c(-c3ccccc3OC(F)(F)F)noc1C1CC1)C2 (centres unmarked) [Example 823]
[1]
  Emax: 112%
  EC50: 10 to 100 nM

## O=C(O)c1ccc(NC(=O)N2C3CCC2CC(OCc2c(-c4c(Cl)cccc4Cl)noc2C2CC2)C3)cn1 (centres unmarked) [Example 213]
  EC50: 100 to 1000 nM

## O=C(NCc1ccccc1)N1C2CCC1CC(OCc1c(-c3c(Cl)cccc3Cl)noc1C1CC1)C2 (centres unmarked) [Example 730]
[1]
  Emax: 252%
  EC50: < 10 nM

## O=C(O)c1ccc(NC(=O)N2C3CCC2CC(OCc2c(-c4c(F)cccc4F)noc2C2CC2)C3)c(F)c1 (centres unmarked) [Example 808]
[1]
  Emax: 32%
  EC50: 10 to 100 nM

## COC(=O)c1ccc(NC(=O)N2C3CCC2CC(OCc2c(-c4c(Cl)cccc4Cl)noc2C2CC2)C3)c(OC(C)C)c1 (centres unmarked) [Example 719]
[1]
  Emax: 104%
  EC50: 100 to 1000 nM

## COC(=O)c1c(F)cc(NC(=O)N2C3CCC2CC(OCc2c(-c4c(Cl)cccc4Cl)noc2C2CC2)C3)cc1F (centres unmarked) [Example 198]
  EC50: < 10 nM

## COC(=O)c1ccc(NC(=O)N2C3CCC2CC(OCc2c(-c4c(Cl)cccc4Cl)noc2C2CC2)C3)cc1-c1cnn(C)c1 (centres unmarked) [Example 774]
[1]
  Emax: 102%
  EC50: < 10 nM

## O=C(Nc1cncc(C(F)(F)F)c1)N1C2CCC1CC(OCc1c(-c3c(Cl)cccc3Cl)noc1C1CC1)C2 (centres unmarked) [Example 18]
  EC50: < 10 nM

## O=C(Nc1cccc(-c2ccccn2)c1)N1C2CCC1CC(OCc1c(-c3c(Cl)cccc3Cl)noc1C1CC1)C2 (centres unmarked) [Example 736]
[1]
  Emax: 136%
  EC50: < 10 nM

## COc1cc(C(=O)O)ccc1NC(=O)N1C2CCC1CC(OCc1c(-c3ccccc3OC(F)(F)F)noc1C1CC1)C2 (centres unmarked) [Example 238]
  EC50: < 10 nM

## CC(C)(C)c1ccc(S(=O)(=O)NC(=O)c2ccc(NC(=O)N3C4CCC3CC(OCc3c(-c5ccccc5OC(F)(F)F)noc3C3CC3)C4)cc2)cc1 (centres unmarked) [Example 757]
[1]
  Emax: 257%
  EC50: 100 to 1000 nM

## COc1cccc(C(=O)O)c1NC(=O)N1C2CCC1CC(OCc1c(-c3ccccc3OC(F)(F)F)noc1C1CC1)C2 (centres unmarked) [Example 762]
[1]
  Emax: 6%
  EC50: 100 to 1000 nM

## O=C(O)c1ccc(NC(=O)N2C3CCC2CC(OCc2c(-c4c(Cl)cccc4Cl)noc2C2CC2)C3)cc1-c1cncnc1 (centres unmarked) [Example 782]
[1]
  Emax: 20%
  EC50: 10 to 100 nM

## O=C(NCc1ccccc1-c1ccccc1)N1C2CCC1CC(OCc1c(-c3c(Cl)cccc3Cl)noc1C1CC1)C2 (centres unmarked) [Example 740]
[1]
  Emax: 90%
  EC50: < 10 nM

## CCOC(=O)c1cccc(NC(=O)N2C3CCC2CC(OCc2c(-c4c(Cl)cccc4Cl)noc2C2CC2)C3)c1 (centres unmarked) [Example 181]
  EC50: < 10 nM

## O=C(Nc1cccc(-c2nnn[nH]2)c1)N1C2CC[C@H]1CC(OCc1c(-c3c(Cl)cccc3Cl)noc1C1CC1)C2 (some centres unmarked) [Example 185]
  EC50: 100 to 1000 nM

## O=C(Nc1ccc(F)c(F)c1)N1C2CCC1CC(OCc1c(-c3c(Cl)cccc3Cl)noc1C1CC1)C2 (centres unmarked) [Example 699]
[1]
  Emax: 232%
  EC50: 10 to 100 nM

## O=C(Nc1cncc(-c2ccccc2)c1)N1C2CCC1CC(OCc1c(-c3c(Cl)cccc3Cl)noc1C1CC1)C2 (centres unmarked) [Example 835]
[1]
  Emax: 223%
  EC50: < 10 nM

## O=C(Nc1ccc2ncccc2c1)N1C2CCC1CC(OCc1c(-c3c(Cl)cccc3Cl)noc1C1CC1)C2 (centres unmarked) [Example 22]
  EC50: < 10 nM

## COc1cc(C(=O)O)ccc1NC(=O)N1C2CCC1CC(OCc1c(-c3c(Cl)cccc3Cl)noc1C1CC1)C2 (centres unmarked) [Example 192]
  EC50: < 10 nM

## O=C(O)c1ccc(NC(=O)N2C3CCC2CC(OCc2c(-c4ccccc4C4CC4)noc2C2CC2)C3)c(F)c1 (centres unmarked) [Example 809]
[1]
  Emax: 43%
  EC50: 10 to 100 nM

## O=C(Nc1ccncc1)N1C2CCC1CC(OCc1c(-c3c(Cl)cccc3Cl)noc1C1CC1)C2 (centres unmarked) [Example 17]
  EC50: 10 to 100 nM

## CCOC(=O)c1ccccc1NC(=O)N1C2CCC1CC(OCc1c(-c3ccccc3OC(F)(F)F)noc1C1CC1)C2 (centres unmarked) [Example 743]
[1]
  Emax: 140%
  EC50: > 1000 nM

## O=C(NC1CCCCC1)N1C2CCC1CC(OCc1c(-c3c(Cl)cccc3Cl)noc1C1CC1)C2 (centres unmarked) [Example 30]
  EC50: 10 to 100 nM
